The record followed here is patent US20110212997A1, “PIPERIDINE-4-ACETAMIDE DERIVATIVES AND THEIR USE AS MONOAMINE NEUROTRANSMITTER RE-UPTAKE INHIBITORS” (NEUROSEARCH A/S, priority 2008, published 2011).

Where two headings read alike, the source gives them in different places.

Common to all, as to format: biochemical
In assay [1] the target is T1, serotonine (5-HT) reuptake in synaptosomes (Rattus norvegicus, UniProt P31652).
T1 construct: serotonine (5-HT) in synaptosomes as described in WO 97/16451; from tissue
T1 sequence (P31652 whole entry): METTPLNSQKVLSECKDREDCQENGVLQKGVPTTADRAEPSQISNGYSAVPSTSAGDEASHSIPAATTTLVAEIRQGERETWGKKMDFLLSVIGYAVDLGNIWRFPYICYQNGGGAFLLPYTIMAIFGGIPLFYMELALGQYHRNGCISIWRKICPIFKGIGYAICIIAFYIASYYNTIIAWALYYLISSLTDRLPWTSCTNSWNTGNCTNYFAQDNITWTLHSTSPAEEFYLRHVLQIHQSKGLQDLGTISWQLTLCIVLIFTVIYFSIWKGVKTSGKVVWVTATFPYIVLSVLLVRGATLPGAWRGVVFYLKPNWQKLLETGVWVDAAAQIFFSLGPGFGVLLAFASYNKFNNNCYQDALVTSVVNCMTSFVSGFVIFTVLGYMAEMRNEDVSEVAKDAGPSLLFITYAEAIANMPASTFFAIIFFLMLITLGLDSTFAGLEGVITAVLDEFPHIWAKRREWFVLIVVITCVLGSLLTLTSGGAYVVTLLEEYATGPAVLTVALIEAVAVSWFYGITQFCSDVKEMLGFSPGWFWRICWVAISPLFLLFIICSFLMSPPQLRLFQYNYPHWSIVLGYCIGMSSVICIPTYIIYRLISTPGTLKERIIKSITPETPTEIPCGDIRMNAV
As to the kind of experiment: Inhibition of 5-HT reuptake in synaptosomes. To be noted: 3H-5-HT, read-out: 5-HT-uptake IC50. The protocol: (§1) Compounds were tested for their ability to inhibit the reuptake of the monoamine neurotransmitters dopamine (DA) noradrenaline (NA) and serotonine (5-HT) in synaptosomes as described in WO 97/16451 (NeuroSearch NS).
(§2) The test values are given as IC50 (the concentration (μM) of the test substance which inhibits the specific binding of ^3H-DA, ^3H-NA, or ^3H-5-HT by 50%).

The target in assay [2] is T2, noradrenaline (NA) reuptake in synaptosomes (Rattus norvegicus, UniProt Q63380).
T2 construct: in synaptosomes as described in WO 97/16451; from tissue
T2 sequence (Q63380 1-617): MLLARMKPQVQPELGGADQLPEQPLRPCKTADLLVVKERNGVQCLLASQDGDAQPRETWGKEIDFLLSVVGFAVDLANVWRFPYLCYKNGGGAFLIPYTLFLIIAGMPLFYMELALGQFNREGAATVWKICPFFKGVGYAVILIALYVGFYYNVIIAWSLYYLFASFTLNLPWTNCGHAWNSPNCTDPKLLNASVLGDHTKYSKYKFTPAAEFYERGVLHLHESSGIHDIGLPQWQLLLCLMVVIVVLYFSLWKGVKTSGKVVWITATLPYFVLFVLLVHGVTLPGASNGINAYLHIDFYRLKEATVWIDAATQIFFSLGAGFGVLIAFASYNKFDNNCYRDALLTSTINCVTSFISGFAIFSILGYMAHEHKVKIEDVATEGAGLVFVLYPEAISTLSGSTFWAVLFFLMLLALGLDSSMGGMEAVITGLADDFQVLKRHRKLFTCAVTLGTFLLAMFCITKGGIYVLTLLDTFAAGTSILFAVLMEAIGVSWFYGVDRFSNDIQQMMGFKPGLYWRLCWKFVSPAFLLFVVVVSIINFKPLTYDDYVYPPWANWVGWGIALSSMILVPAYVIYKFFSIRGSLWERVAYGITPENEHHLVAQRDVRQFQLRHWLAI
As to the kind of experiment: Inhibition of NA reuptake in synaptosomes. The protocol:
as §1, §2

Assay [3] has as its target T3, dopamine (DA) reuptake in synaptosomes (Rattus norvegicus, UniProt P23977).
T3 construct: in synaptosomes as described in WO 97/16451; from tissue
As to the kind of experiment: Inhibition of DA reuptake in synaptosomes. The protocol:
as §1, §2

Setting [4] is: synaptosomes, 3H-NA, read-out: NA-uptake IC50.
The mark [5] stands for this setting: synaptosomes, 3H-DA, read-out: DA-uptake IC50.

T3 sequence (P23977 whole entry): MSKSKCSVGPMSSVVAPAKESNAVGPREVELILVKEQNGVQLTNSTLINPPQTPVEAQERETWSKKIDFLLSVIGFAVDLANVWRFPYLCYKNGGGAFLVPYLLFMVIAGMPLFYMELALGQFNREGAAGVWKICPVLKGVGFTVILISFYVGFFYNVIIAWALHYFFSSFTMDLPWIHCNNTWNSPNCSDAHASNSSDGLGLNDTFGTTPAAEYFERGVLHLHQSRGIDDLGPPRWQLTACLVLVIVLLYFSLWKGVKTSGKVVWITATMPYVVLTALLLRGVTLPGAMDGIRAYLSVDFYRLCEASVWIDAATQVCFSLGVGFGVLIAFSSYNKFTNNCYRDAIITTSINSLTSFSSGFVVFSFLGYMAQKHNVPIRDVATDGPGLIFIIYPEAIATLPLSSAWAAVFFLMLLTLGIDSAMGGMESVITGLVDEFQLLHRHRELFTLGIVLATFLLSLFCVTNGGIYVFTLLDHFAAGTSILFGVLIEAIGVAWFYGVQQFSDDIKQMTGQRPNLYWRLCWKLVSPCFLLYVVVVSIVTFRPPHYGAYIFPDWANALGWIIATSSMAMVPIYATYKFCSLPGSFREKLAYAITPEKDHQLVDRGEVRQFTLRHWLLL

A word on the IC50: it is the concentration that inhibits the measured activity by half. Take `CN(C(=O)CC1CCNCC1)c1ccc(Cl)c(Cl)c1` [Compound B1, N-(3,4-Dichloro-phenyl)-N-methyl-2-piperidin-4-yl-acetamide]: the IC50 came out at 280 nM in assay [1], 120 nM in assay [2] (setting [4]) and 230 nM in assay [3] (setting [5]).

As to `CCN(C(=O)CC1CCNCC1)c1ccc(Cl)c(Cl)c1` [Compound C1, N-(3,4-Dichloro-phenyl)-N-ethyl-2-piperidin-4-yl-acetamide], the concentration for half-maximal inhibition (IC50) in assay [1] was found to be 1500 nM; in assay [2] (setting [4]) it was 6.6 nM; in assay [3] (setting [5]), 15 nM.

Take `O=C(CC1CCNCC1)Nc1ccc(Cl)c(Cl)c1` [Compound C2, N-(3,4-Dichloro-phenyl)-2-piperidin-4-yl-acetamide]: the IC50 was 23 nM in assay [1], > 1000 nM in assay [2] (setting [4]) and > 1000 nM in assay [3] (setting [5]).

Turning to `CCN(C(=O)CC1CCNCC1)c1ccc(Cl)cc1` [Compound C3, N-(4-Chloro-phenyl)-N-ethyl-2-piperidin-4-yl-acetamide], the IC50 is > 1000 nM in assay [1], 770 nM in assay [2] (setting [4]) and 450 nM in assay [3] (setting [5]).

As for `CCN(C(=O)CC1CCNCC1)c1cccc(Cl)c1` [Compound C4, N-(3-Chloro-phenyl)-N-ethyl-2-piperidin-4-yl-acetamide], the IC50 in assay [1] is > 1000 nM; in assay [2] (setting [4]), 460 nM; in assay [3] (setting [5]) it was 600 nM.

Consider `CCN(C(=O)CC1CCNCC1)c1cccc2ccccc12` [Compound C5, N-Ethyl-N-naphthalen-1-yl-2-piperidin-4-yl-acetamide], for which the IC50 in assay [1] was > 1000 nM; in assay [2] (setting [4]) it was 600 nM; in assay [3] (setting [5]) it was > 1000 nM.

With `CCN(C(=O)CC1CCNCC1)c1cccc(Cl)c1Cl` [Compound C6, N-(2,3-Dichloro-phenyl)-N-ethyl-2-piperidin-4-yl-acetamide], the IC50 in assay [1] is > 1000 nM; in assay [2] (setting [4]), 910 nM; in assay [3] (setting [5]) it was > 1000 nM.

Regarding `CCN(C(=O)CC1CCNCC1)c1cc(Cl)ccc1Cl` [Compound C7, N-(2,5-Dichloro-phenyl)-N-ethyl-2-piperidin-4-yl-acetamide], the IC50 in assay [1] is > 1000 nM; in assay [2] (setting [4]), 1500 nM; in assay [3] (setting [5]), 2600 nM.

As for `CCN(C(=O)CC1CCNCC1)c1c(Cl)cccc1Cl` [Compound C8, N-(2,6-Dichloro-phenyl)-N-ethyl-2-piperidin-4-yl-acetamide], the IC50 in assay [1] is > 1000 nM; in assay [2] (setting [4]) it was 2700 nM; in assay [3] (setting [5]), > 1000 nM.

As to `CCN(C(=O)CC1CCNCC1)c1cc(Cl)cc(Cl)c1` [Compound C9, N-(3,5-Dichloro-phenyl)-N-ethyl-2-piperidin-4-yl-acetamide], the half-maximal inhibitory concentration (IC50) in assay [1] was > 1000 nM; in assay [2] (setting [4]) it was 670 nM; in assay [3] (setting [5]), 1900 nM.

Turning to `CCN(C(=O)CC1CCNCC1)c1ccc(Cl)c(Cl)c1Cl` [Compound C10, N-Ethyl-2-piperidin-4-yl-N-(2,3,4-trichloro-phenyl)-acetamide], the IC50 in assay [1] was found to be 1400 nM; in assay [2] (setting [4]), 120 nM; in assay [3] (setting [5]) it was 630 nM.

Consider `CCN(C(=O)CC1CCNCC1)c1ccc(Br)c(Br)c1` [Compound C11, N-(3,4-Dibromo-phenyl)-N-ethyl-2-piperidin-4-yl-acetamide], for which the IC50 in assay [1] was determined as 610 nM; in assay [2] (setting [4]) it was 1.2 nM; in assay [3] (setting [5]), 2.2 nM.

In the case of `CCCN(C(=O)CC1CCNCC1)c1ccc(Cl)c(Cl)c1` [Compound C12, N-(3,4-Dichloro-phenyl)-2-piperidin-4-yl-N-propyl-acetamide], the IC50 in assay [1] is 880 nM; in assay [2] (setting [4]), 5.2 nM; in assay [3] (setting [5]), 12 nM.

On to `CCN(C(=O)CC1CCNCC1)c1ccc(Cl)c(Br)c1` [Compound C13, N-(3-Bromo-4-chloro-phenyl)-N-ethyl-2-piperidin-4-yl-acetamide], for which the IC50 in assay [1] was 1200 nM; in assay [2] (setting [4]) it was 1.3 nM; in assay [3] (setting [5]), 8 nM.

Consider `CCN(C(=O)CC1CCN(C)CC1)c1ccc(Cl)c(Cl)c1` [Compound D1, N-(3,4-Dichloro-phenyl)-N-ethyl-2-(1-methyl-piperidin-4-yl)-acetamide], for which the half-maximal inhibitory concentration (IC50) stood at 1400 nM in assay [1], 4.4 nM in assay [2] (setting [4]) and 20 nM in assay [3] (setting [5]).

Consider `CCN(C(=O)CC1CCN(C)CC1)c1ccc(Cl)cc1` [Compound D2, N-(4-Chloro-phenyl)-N-ethyl-2-(1-methyl-piperidin-4-yl)-acetamide], for which the IC50 in assay [1] is > 1000 nM; in assay [2] (setting [4]), 390 nM; in assay [3] (setting [5]) it was 970 nM.

`CCN(C(=O)CC1CCN(C)CC1)c1cccc2ccccc12` [Compound D3, N-Ethyl-2-(1-methyl-piperidin-4-yl)-N-naphthalen-1-yl-acetamide]: the IC50 was > 1000 nM in assay [1], 1700 nM in assay [2] (setting [4]) and > 1000 nM in assay [3] (setting [5]).

Take `CCN(C(=O)CC1CCNCC1)c1ccc(Br)c(Cl)c1` [Compound D4, N-(4-Bromo-3-chloro-phenyl)-N-ethyl-2-piperidin-4-yl-acetamide]: the IC50 was 2100 nM in assay [1], 2.6 nM in assay [2] (setting [4]) and 8.6 nM in assay [3] (setting [5]).

For the compound `CCN(C(=O)CC1CCNCC1)c1ccc(Cl)cc1Cl` [Compound D5, N-(2,4-Dichloro-phenyl)-N-ethyl-2-piperidin-4-yl-acetamide], the IC50 in assay [1], in assay [2] (setting [4]) and in assay [3] (setting [5]) was > 1000 nM throughout.

As for `CN1CCC(CC(=O)Nc2ccc(Cl)c(Cl)c2)CC1` [Compound D6, N-(3,4-Dichloro-phenyl)-2-(1-methyl-piperidin-4-yl)-acetamide], the IC50 in assay [1], in assay [2] (setting [4]) and in assay [3] (setting [5]) was > 1000 nM each time.

As for `CCN(C(=O)CC1CCN(C)CC1)c1cccc(Cl)c1` [Compound D7, N-(3-Chloro-phenyl)-N-ethyl-2-(1-methyl-piperidin-4-yl)-acetamide], the results for the IC50 in assay [1], in assay [2] (setting [4]) and in assay [3] (setting [5]) were > 1000 nM, 350 nM and 970 nM, respectively.

Regarding `CCN(C(=O)CC1CCN(C)CC1)c1cccc(Cl)c1Cl` [Compound D8, N-(2,3-Dichloro-phenyl)-N-ethyl-2-(1-methyl-piperidin-4-yl)-acetamide], the IC50 in assay [1], in assay [2] (setting [4]) and in assay [3] (setting [5]) was > 1000 nM each time.

In the case of `CCCN1CCC(CC(=O)N(CC)c2ccc(Cl)c(Cl)c2)CC1` [Compound D9, N-(3,4-Dichloro-phenyl)-N-ethyl-2-(1-propykpiperidin-4-yl)-acetamide], the concentration for half-maximal inhibition (IC50) worked out at 780 nM in assay [1], 3.8 nM in assay [2] and 12 nM in assay [3].

Turning to `CCN(C(=O)CC1CCN(C(C)C)CC1)c1ccc(Cl)c(Cl)c1` [Compound D10, N-(3,4-Dichloro-phenyl)-N-ethyl-2-(1-isopropyl-piperidin-4-yl)-acetamide], the concentration for half-maximal inhibition (IC50) in assay [1] came to 1200 nM; in assay [2] (setting [4]), 7.7 nM; in assay [3] (setting [5]), 31 nM.

Take `CCN1CCC(CC(=O)N(CC)c2ccc(Cl)c(Cl)c2)CC1` [Compound D11, N-(3,4-Dichloro-phenyl)-N-ethyl-2-(1-ethyl-piperidin-4-yl)-acetamide]: the IC50 in assay [1] worked out at 870 nM; in assay [2] (setting [4]), 3.2 nM; in assay [3] (setting [5]) it was 13 nM.

As for `CN1CCC(CC(=O)N(C)c2ccc(Cl)c(Cl)c2)CC1` [Compound D12, N-(3,4-Dichloro-phenyl)-N-methyl-2-(1-methyl-piperidin-4-yl)-acetamide], the IC50 in assay [1] is > 1000 nM; in assay [2] (setting [4]) it was 69 nM; in assay [3] (setting [5]), 160 nM.

`CCN(C(=O)CC1CCN(C)CC1)c1ccc(Br)c(Cl)c1` [Compound D13, N-(4-Bromo-3-chloro-phenyl)-N-ethyl-2-(1-methyl-piperidin-4-yl)-acetamide]: the IC50 in assay [1] was determined as 1500 nM; in assay [2] (setting [4]), 2.7 nM; in assay [3] (setting [5]), 16 nM.

Consider `CCN(C(=O)CC1CCN(C)CC1)c1ccc(Cl)cc1Cl` [Compound D14, N-(2,4-Dichloro-phenyl)-N-ethyl-2-(1-methyl-piperidin-4-yl)-acetamide], for which the half-maximal inhibitory concentration (IC50) in assay [1] was > 1000 nM; in assay [2] (setting [4]), 960 nM; in assay [3] (setting [5]), 2500 nM.

Regarding `CCN(C(=O)CC1CCN(C)CC1)c1cc(Cl)ccc1Cl` [Compound D15, N-(2,5-Dichloro-phenyl)-N-ethyl-2-(1-methyl-piperidin-4-yl)-acetamide], the half-maximal inhibitory concentration (IC50) in assay [1] is > 1000 nM; in assay [2] (setting [4]) it was 860 nM; in assay [3] (setting [5]), 1700 nM.

As for `CCN(C(=O)CC1CCN(C)CC1)c1c(Cl)cccc1Cl` [Compound D16, N-(2,6-Dichloro-phenyl)-N-ethyl-2-(1-methyl-piperidin-4-yl)-acetamide], the IC50 in assay [1], in assay [2] (setting [4]) and in assay [3] (setting [5]) was > 1000 nM throughout.

Turning to `CCN(C(=O)CC1CCN(C)CC1)c1cc(Cl)cc(Cl)c1` [Compound D17, N-(3,5-Dichloro-phenyl)-N-ethyl-2-(1-methyl-piperidin-4-yl)-acetamide], the figures for the IC50 in assay [1], in assay [2] (setting [4]) and in assay [3] (setting [5]) were > 1000 nM, 1800 nM and > 1000 nM, respectively.

With `CCN(C(=O)CC1CCN(C)CC1)c1ccc(Cl)c(Cl)c1Cl` [Compound D18, N-Ethyl-2-(1-methyl-piperidin-4-yl)-N-(2,3,4-trichloro-phenyl)-acetamide], the IC50 was 2100 nM in assay [1] and 81 nM in assay [2] (setting [4]).

With `CCN(C(=O)CC1CCN(C)CC1)c1ccc(Br)c(Br)c1` [Compound D19, N-(3,4-Dibromo-phenyl)-N-ethyl-2-(1-methyl-piperidin-4-yl)-acetamide], the IC50 was determined as 680 nM in assay [1], 1.1 nM in assay [2] (setting [4]) and 3.6 nM in assay [3] (setting [5]).
